Source: ChEMBL document CHEMBL5325462, “Regioselective synthesis and in vitro cytotoxicity evaluation of 3-thiooxindole derivatives: Tubulin polymerization inhibition and apoptosis inducing studies” (Bioorg Med Chem, 2023)
Calls of active or inactive are those of the source. The calls are words filed in the database; no cut-off is given here.

Legend:
[1] = test system: HCT-116; test: Induction of nuclear morphological changes in human HCT-116 cells assessed as change in nuclear shape measured after 48 hrs by DAPI-staining based fluorescence microscopic analysis; type: functional, cell-based
[2] = test system: HCT-116; test: Induction of apoptosis in human HCT-116 cells assessed as viable cells at 6.64 uM incubated for 24 hrs by Annexin V-FITC/PI staining based flow cytometry analysis (Rvb= 99.7%); type: functional; details: read-out: Activity
[3] = test system: Cell membrane; test: Induction of mitochondrial membrane potential loss in human HCT-116 cells assessed as depolarized cells at 6.64 uM incubated for 72 hrs by JC-1 staining based flow cytometry analysis (reference value: 0.4 %); type: subcellular
[4] = test system: HCT-116; test: Induction of apoptosis in human HCT-116 cells assessed as early apoptotic cells at 3.32 uM incubated for 24 hrs by Annexin V-FITC/PI staining based flow cytometry analysis (Rvb= 0.2%); type: functional
[5] = test system: HCT-116; test: Cell cycle arrest in human HCT-116 cells assessed as accumulation of cells in G0/G1 phase at 6.64 uM measured after 48 hrs by PI staining based flow cytometry method (reference value: 79%); type: functional
[6] = target: Tubulin; test: Inhibition of tubulin polymerization (unknown origin) by absorbance based analysis; type: protein-complex assay, Homo sapiens
[7] = test system: HCT-116; test: Induction of apoptosis in human HCT-116 cells assessed as early apoptotic cells at 6.64 uM incubated for 24 hrs by Annexin V-FITC/PI staining based flow cytometry analysis (Rvb= 0.2%); type: functional
[8] = test system: HCT-116; test: Inhibition of colony formation in human HCT-116 cells measured after 14 days; type: functional, cell-based; details: dose 3.32-13.28 µM, time 14.0 day
[9] = Cytotoxicity against rat NRK cells assessed as inhibition of cell growth measured after 72 hrs by MTT assay; type: toxicity, cell-based
[10] = test system: Cell membrane; test: Induction of mitochondrial membrane potential loss in human HCT-116 cells assessed as polarized cells at 13.28 uM incubated for 72 hrs by JC-1 staining based flow cytometry analysis (reference value: 99.6 %); type: subcellular
[11] = test system: HCT-116; test: Cell cycle arrest in human HCT-116 cells assessed as accumulation of cells in G2/M phase at 3.32 uM measured after 48 hrs by PI staining based flow cytometry method (reference value: 6.7%); type: functional
[12] = test system: HCT-116; test: Induction of apoptosis in human HCT-116 cells assessed as late apoptotic cells at 3.32 uM incubated for 24 hrs by Annexin V-FITC/PI staining based flow cytometry analysis (Rvb= 0.1%); type: functional
[13] = test system: HCT-116; test: Induction of morphological changes in human HCT-116 cells assessed as cell nucleus shrinkage at 3.32 to 13.28 uM measured after 48 hrs by phase contrast microscope; type: functional, cell-based; details: dose 3.32-13.28 µM
[14] = test system: HCT-116; test: Induction of apoptosis in human HCT-116 cells assessed as early apoptotic cells at 13.28 uM incubated for 24 hrs by Annexin V-FITC/PI staining based flow cytometry analysis (Rvb= 0.2%); type: functional
[15] = test system: HCT-116; test: Induction of apoptosis in human HCT-116 cells assessed as viable cells at 3.32 uM incubated for 24 hrs by Annexin V-FITC/PI staining based flow cytometry analysis (Rvb= 99.7%); type: functional; details: read-out: Activity

Activity [3]: 5.9%
IC50 [6]: 9.73 µM
Activity [10]: 86.7%
Structure (SMILES): CC(C)(C)S(=O)(=O)NCC1(Sc2nc3ccccc3[nH]2)C(=O)N(Cc2ccc(Br)cc2)c2ccccc21 (stereo not given)
Activity [1]: Dose-Dependent Effect
viability at 6.64 µM [2]: 9.9%
Activity [4]: 41.8%
Activity [5]: 49.2%
Activity [7]: 21.4%
inhibition [8]: Dose-Dependent Effect
IC50 at 72 h [9]: 38.4 µM
Activity [11]: 11.8%
Activity [12]: 53.4%
Activity [13]: Active
Activity [14]: 8.9%
viability at 3.32 µM [15]: 4.5%
